# Results taken from the supplement of paper PMC6411743.
# Compound: Nc1ncnc2c1ncn2[C@@H]1O[C@H](COP(=O)(O)OP(=O)(O)OP(=O)(O)O)[C@@H](O)[C@H]1O [adenosine triphosphate]
# Test: pEC50 of ATP-induced change in protein thermal stability (2D-TPP)
# Summary of the method: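 Each of three independent experiments used Jurkat crude lysate given five concentrations including vehicle (10 min, room temperature), followed by 3 min at one of 12 temperatures from 42 to 63.9 °C and NP40 with benzonase (60 min, 4 °C). TMT LC-MS/MS quantified soluble protein after ultracentrifugation, expressed as fold changes against vehicle at each temperature with median normalisation. For pEC50, dose-response curves were fitted per replicate over adjacent temperature pairs, and hits were called through permutation-based false discovery rate control.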
# 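Also: lysate dosed with Na-ATP at 0 0.005 0.05 0.5 and 2 mM.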
# Sequence of UniProt O75063 (O75063 whole entry): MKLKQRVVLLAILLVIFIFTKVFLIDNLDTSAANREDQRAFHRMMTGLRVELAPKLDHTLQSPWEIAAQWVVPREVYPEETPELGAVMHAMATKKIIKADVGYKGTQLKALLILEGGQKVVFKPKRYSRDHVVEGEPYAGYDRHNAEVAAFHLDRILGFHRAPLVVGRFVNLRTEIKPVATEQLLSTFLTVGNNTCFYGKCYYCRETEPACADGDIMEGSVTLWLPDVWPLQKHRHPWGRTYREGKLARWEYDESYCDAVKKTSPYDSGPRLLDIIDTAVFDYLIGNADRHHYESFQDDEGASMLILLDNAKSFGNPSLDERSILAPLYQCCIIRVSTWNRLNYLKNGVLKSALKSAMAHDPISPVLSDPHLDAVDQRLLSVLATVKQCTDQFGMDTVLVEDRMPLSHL
# Sequence of UniProt Q9NY93 (Q9NY93 whole entry): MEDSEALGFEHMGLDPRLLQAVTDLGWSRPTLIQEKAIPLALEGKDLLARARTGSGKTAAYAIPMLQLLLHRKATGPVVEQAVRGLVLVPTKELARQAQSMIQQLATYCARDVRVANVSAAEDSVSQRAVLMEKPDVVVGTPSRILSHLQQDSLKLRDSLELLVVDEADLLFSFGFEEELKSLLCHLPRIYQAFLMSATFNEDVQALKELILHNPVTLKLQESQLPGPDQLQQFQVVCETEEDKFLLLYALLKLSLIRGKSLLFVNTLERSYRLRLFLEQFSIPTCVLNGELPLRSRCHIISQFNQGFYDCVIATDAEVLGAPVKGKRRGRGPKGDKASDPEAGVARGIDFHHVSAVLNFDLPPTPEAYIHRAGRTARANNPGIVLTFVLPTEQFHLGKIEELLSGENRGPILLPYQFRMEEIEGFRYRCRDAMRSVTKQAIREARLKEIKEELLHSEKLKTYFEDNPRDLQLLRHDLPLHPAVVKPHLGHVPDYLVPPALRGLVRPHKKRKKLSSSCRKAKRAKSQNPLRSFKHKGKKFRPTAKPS
# Sequence of UniProt Q13885 (Q13885 whole entry): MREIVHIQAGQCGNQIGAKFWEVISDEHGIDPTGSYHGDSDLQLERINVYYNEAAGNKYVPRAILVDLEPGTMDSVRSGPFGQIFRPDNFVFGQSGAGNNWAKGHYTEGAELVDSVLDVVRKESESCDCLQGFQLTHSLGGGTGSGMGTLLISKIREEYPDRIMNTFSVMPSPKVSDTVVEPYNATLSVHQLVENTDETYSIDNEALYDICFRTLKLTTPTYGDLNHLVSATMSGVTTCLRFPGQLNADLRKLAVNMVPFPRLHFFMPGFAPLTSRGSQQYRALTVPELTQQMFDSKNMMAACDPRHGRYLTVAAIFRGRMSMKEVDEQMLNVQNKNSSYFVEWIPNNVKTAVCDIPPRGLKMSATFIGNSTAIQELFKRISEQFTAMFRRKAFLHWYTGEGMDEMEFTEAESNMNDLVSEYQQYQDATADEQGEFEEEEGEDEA
# Sequence of UniProt Q13555 (Q13555 whole entry): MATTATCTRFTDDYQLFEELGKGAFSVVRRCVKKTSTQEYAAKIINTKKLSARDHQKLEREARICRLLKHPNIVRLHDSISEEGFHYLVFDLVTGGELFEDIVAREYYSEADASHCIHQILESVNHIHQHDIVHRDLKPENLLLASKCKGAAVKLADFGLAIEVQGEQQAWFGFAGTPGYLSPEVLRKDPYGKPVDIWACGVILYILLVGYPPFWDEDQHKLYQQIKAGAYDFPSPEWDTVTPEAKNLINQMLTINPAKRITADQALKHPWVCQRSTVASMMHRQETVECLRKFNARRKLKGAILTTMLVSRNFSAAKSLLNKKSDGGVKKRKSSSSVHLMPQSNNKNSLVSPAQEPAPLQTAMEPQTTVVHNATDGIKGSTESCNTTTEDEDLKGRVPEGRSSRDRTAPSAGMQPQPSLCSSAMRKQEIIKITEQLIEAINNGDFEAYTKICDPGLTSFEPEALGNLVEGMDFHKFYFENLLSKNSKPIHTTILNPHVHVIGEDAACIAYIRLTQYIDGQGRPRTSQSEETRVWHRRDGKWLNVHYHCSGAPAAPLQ
# Sequence of UniProt Q9NWS6 (Q9NWS6 whole entry): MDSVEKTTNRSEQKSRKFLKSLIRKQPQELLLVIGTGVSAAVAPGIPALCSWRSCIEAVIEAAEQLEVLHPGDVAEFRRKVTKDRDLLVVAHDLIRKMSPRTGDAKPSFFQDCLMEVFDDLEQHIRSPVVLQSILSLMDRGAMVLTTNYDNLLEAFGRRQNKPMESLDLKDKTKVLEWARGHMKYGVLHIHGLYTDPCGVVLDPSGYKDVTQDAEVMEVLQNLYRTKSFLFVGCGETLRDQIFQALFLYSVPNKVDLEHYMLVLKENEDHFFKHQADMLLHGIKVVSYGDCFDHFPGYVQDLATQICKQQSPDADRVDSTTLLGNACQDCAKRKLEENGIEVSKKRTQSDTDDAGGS
# Sequence of UniProt Q9UHD1 (Q9UHD1 whole entry): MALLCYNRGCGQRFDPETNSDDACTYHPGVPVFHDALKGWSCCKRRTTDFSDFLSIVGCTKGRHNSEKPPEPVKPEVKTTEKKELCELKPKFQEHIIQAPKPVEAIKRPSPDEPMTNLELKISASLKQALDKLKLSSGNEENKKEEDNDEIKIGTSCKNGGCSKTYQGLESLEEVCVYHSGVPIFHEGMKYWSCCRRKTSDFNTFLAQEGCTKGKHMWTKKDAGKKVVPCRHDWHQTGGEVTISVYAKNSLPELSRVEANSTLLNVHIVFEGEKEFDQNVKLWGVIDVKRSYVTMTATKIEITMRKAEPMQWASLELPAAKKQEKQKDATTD
# Sequence of UniProt Q9BRT6 (Q9BRT6 whole entry): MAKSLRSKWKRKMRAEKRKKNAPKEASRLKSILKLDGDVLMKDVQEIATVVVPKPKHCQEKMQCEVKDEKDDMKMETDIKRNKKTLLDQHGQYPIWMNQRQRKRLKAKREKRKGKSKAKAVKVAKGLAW
# Sequence of UniProt Q13523 (Q13523 whole entry, looked up): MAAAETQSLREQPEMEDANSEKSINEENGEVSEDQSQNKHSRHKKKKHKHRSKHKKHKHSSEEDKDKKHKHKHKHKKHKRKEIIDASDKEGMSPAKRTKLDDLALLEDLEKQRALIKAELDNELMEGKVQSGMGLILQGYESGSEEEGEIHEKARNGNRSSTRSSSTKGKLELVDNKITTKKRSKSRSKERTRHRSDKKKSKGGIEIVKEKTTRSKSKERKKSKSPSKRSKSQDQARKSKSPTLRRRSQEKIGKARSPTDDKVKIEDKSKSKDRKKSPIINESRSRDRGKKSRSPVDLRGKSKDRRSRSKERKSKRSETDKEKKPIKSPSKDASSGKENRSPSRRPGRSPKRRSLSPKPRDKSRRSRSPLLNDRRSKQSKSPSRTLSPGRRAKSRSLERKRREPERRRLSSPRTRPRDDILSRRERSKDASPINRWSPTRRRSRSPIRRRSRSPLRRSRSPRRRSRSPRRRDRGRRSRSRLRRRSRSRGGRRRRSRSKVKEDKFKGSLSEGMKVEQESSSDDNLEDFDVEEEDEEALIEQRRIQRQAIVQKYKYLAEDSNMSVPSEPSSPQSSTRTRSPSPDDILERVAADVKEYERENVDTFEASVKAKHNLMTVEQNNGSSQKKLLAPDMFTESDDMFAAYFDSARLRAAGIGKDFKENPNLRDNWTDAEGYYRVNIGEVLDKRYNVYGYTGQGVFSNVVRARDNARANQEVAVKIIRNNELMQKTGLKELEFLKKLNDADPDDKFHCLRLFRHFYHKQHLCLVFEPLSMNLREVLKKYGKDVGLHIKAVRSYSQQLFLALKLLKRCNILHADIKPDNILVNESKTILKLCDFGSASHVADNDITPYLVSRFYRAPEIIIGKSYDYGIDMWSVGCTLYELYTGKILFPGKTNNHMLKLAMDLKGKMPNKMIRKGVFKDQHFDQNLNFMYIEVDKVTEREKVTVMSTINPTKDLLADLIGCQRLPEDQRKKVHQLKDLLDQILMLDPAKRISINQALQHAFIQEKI
# Sequence of UniProt P23526 (P23526 whole entry, looked up): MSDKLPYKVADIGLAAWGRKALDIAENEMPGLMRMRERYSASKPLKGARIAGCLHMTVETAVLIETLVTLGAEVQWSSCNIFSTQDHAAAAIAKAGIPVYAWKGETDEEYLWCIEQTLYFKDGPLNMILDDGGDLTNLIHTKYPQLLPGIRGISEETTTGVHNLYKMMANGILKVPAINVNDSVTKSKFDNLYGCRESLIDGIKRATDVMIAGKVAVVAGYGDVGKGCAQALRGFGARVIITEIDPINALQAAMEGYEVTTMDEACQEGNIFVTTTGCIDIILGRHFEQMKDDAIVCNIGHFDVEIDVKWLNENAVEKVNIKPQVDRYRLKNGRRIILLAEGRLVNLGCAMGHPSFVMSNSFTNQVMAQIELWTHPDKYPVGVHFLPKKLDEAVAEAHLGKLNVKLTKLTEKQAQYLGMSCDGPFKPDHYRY
# Sequence of UniProt Q9Y262 (Q9Y262 whole entry): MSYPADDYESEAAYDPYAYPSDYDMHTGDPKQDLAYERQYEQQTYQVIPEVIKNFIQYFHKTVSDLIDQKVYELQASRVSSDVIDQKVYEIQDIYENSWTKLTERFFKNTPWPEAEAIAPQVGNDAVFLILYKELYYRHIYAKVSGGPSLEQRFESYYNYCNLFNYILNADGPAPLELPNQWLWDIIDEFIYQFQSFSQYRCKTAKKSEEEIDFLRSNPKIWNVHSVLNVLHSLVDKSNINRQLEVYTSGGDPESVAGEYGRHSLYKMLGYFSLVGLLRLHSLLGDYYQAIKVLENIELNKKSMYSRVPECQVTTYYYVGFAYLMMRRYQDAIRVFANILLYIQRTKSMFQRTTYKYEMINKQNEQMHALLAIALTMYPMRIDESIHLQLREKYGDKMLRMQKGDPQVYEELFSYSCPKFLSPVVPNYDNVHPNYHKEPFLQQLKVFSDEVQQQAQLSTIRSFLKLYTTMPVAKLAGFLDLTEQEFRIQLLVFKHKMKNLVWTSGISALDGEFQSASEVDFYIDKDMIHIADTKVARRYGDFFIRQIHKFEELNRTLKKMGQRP
# Sequence of UniProt Q8NDX6 (Q8NDX6 whole entry): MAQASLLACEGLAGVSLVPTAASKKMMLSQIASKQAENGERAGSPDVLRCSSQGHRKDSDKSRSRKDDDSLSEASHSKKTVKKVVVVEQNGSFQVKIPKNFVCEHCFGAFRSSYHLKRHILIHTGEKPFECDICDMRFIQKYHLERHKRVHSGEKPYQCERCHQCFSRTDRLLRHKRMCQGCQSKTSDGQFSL
row,Target,pEC50
1,UniProt P83731 (effect direction: destabilized),3.11
2,ATP2A3 (effect direction: stabilized) (UniProt Q93084),3.22
3,AGK (effect direction: stabilized) (UniProt Q53H12),2.97
4,SRC (effect direction: stabilized) (UniProt P12931),3.37
5,UniProt P42285 (effect direction: stabilized),< 2.7
6,MRPL30 (effect direction: destabilized) (UniProt Q8TCC3),3.37
7,DHX57 (effect direction: stabilized) (UniProt Q6P158),4.17
8,PRPF4B (effect direction: stabilized) (UniProt Q13523),3.18
9,SF3B3 (effect direction: stabilized) (UniProt Q15393),< 2.7
10,UniProt P35626 (effect direction: stabilized),3.31
11,FAM20B (effect direction: stabilized) (UniProt O75063),3.12
12,FAM118A (effect direction: stabilized) (UniProt Q9NWS6),3.19
13,UniProt P62308 (effect direction: destabilized),2.78
14,CLCN3 (effect direction: stabilized) (UniProt P51790),3.23
15,WDR33 (effect direction: stabilized) (UniProt Q9C0J8),< 2.7
16,GLA (effect direction: stabilized) (UniProt P06280),3.03
17,ACTR1B (effect direction: stabilized) (UniProt P42025),4.23
18,UniProt P62847 (effect direction: destabilized),4.16
19,ATP1A1 (effect direction: stabilized) (UniProt P05023),3.18
20,RPS3 (effect direction: destabilized) (UniProt P23396),< 2.7
21,NFATC2 (effect direction: stabilized) (UniProt Q13469),3.21
22,CTSD (effect direction: stabilized) (UniProt P07339),3.11
23,UniProt P62495 (effect direction: stabilized),< 2.7
24,DDX56 (effect direction: stabilized) (UniProt Q9NY93),3.68

row,Target,pEC50
1,CNOT10 (effect direction: stabilized) (UniProt Q9H9A5),3.17
2,UniProt P23443 (effect direction: stabilized),3.7
3,CAMK2G (effect direction: stabilized) (UniProt Q13555),3.4
4,CHORDC1 (effect direction: stabilized) (UniProt Q9UHD1),< 2.7
5,MRPS23 (effect direction: destabilized) (UniProt Q9Y3D9),3.89
6,PEPD (effect direction: destabilized) (UniProt P12955),< 2.7
7,UniProt Q13885 (effect direction: stabilized),3.12
8,CHERP (effect direction: stabilized) (UniProt Q8IWX8),3.05
9,JAKMIP1 (effect direction: stabilized) (UniProt Q96N16),3.3
10,AIP (effect direction: stabilized) (UniProt O00170),< 2.7
11,UniProt Q8N9R8 (effect direction: stabilized),3.01
12,KIF11 (effect direction: stabilized) (UniProt P52732),3.26
13,ILKAP (effect direction: stabilized) (UniProt Q9H0C8),< 2.7
14,UniProt P62266 (effect direction: destabilized),3.33
15,RPL10A (effect direction: destabilized) (UniProt P62906),< 2.7
16,ZNF740 (effect direction: stabilized) (UniProt Q8NDX6),3.16
17,UniProt Q8N4C8 (effect direction: stabilized),3.74
18,ARHGDIB (effect direction: stabilized) (UniProt P52566),< 2.7
19,RPL28 (effect direction: destabilized) (UniProt P46779),4.17
20,RBMX (effect direction: destabilized) (UniProt P38159),< 2.7
21,PSMD12 (effect direction: stabilized) (UniProt O00232),4.29
22,ZC3HC1 (effect direction: stabilized) (UniProt Q86WB0),2.91
23,TBCB (effect direction: stabilized) (UniProt Q99426),< 2.7
24,FNTA (effect direction: stabilized) (UniProt P49354),3.22

row,Target,pEC50
1,UniProt P62263 (effect direction: destabilized),2.97
2,UniProt P26639 (effect direction: stabilized),< 2.7
3,PHGDH (effect direction: stabilized) (UniProt O43175),< 2.7
4,FBL (effect direction: destabilized) (UniProt P22087),3.44
5,UniProt Q8N1G2 (effect direction: stabilized),3.14
6,GPS1 (effect direction: stabilized) (UniProt Q13098),< 2.7
7,ATP2C1 (effect direction: stabilized) (UniProt P98194),3.66
8,TBP (effect direction: destabilized) (UniProt P20226),3.12
9,KIF20A (effect direction: stabilized) (UniProt O95235),3.14
10,UniProt Q8TBX8 (effect direction: stabilized),3.04
11,GLO1 (effect direction: destabilized) (UniProt Q04760),< 2.7
12,SACM1L (effect direction: stabilized) (UniProt Q9NTJ5),3.14
13,PPP3CA (effect direction: destabilized) (UniProt Q08209),3.09
14,IQGAP1 (effect direction: destabilized) (UniProt P46940),3.65
15,NT5DC2 (effect direction: stabilized) (UniProt Q9H857),< 2.7
16,DHCR24 (effect direction: stabilized) (UniProt Q15392),3.66
17,CTBP1 (effect direction: stabilized) (UniProt Q13363),2.87
18,ILF3 (effect direction: stabilized) (UniProt Q12906),3.13
19,NAT14 (effect direction: stabilized) (UniProt Q8WUY8),3.34
20,LLPH (effect direction: stabilized) (UniProt Q9BRT6),< 2.7
21,UniProt Q7Z3D6 (effect direction: destabilized),2.79
22,BICD2 (effect direction: stabilized) (UniProt Q8TD16),< 2.7
23,UniProt P62826 (effect direction: destabilized),3.01
24,UniProt O00487 (effect direction: stabilized),4.28

row,Target,pEC50
1,PRKAG1 (effect direction: stabilized) (UniProt P54619),3.27
2,SRFBP1 (effect direction: destabilized) (UniProt Q8NEF9),2.86
3,NEDD8 (effect direction: destabilized) (UniProt Q15843),3.02
4,MTHFD1L (effect direction: stabilized) (UniProt Q6UB35),3.33
5,SPN (effect direction: destabilized) (UniProt P16150),3.88
6,UniProt Q13416 (effect direction: stabilized),3.4
7,UniProt Q05655 (effect direction: stabilized),3.91
8,UniProt P0DMV8 (effect direction: stabilized),3.72
9,PGM1 (effect direction: destabilized) (UniProt P36871),< 2.7
10,CTBS (effect direction: stabilized) (UniProt Q01459),2.87
11,FKBP4 (effect direction: stabilized) (UniProt Q02790),< 2.7
12,AHCY (effect direction: stabilized) (UniProt P23526),4.33
13,RFX1 (effect direction: stabilized) (UniProt P22670),< 2.7
14,CLN5 (effect direction: stabilized) (UniProt O75503),3.38
15,UniProt Q13188 (effect direction: stabilized),3.25
16,ATG7 (effect direction: stabilized) (UniProt O95352),3.74
17,WDR61 (effect direction: stabilized) (UniProt Q9GZS3),2.85
18,EIF3L (effect direction: stabilized) (UniProt Q9Y262),< 2.7
19,UniProt P62899 (effect direction: destabilized),3
20,UniProt Q9UKZ1 (effect direction: stabilized),3.4
21,XRCC5 (effect direction: stabilized) (UniProt P13010),< 2.7
